Experimental data published in patent US8598120B2 (Amylin Pharmaceuticals, LLC, priority 2004, dated 2013).
Square brackets hold non-standard residues; d marks the D form. Ends that are not written are not given here. * marks the point of attachment. Pentanoyl(4-Me) = CC(C)CCC(=O)*; Orn = NCCC[C@H](N)C(=O)O

Assay: Food intake assay in overnight fasted mice
Assay type: in vivo
Details: 25 nmol/kg intraperitoneal
Method: Female NIH/Swiss mice (8-14 weeks old) were group housed with a 12:12 hour light:dark cycle. Water and a standard pelleted mouse chow diet are available ad libitum, except as noted. Animals are fasted starting at approximately 1500 hrs, 1 day prior to experiment.
The effects of treatment on food intake are expressed as % change relative to control.

| Substance | cumulative food intake compared to vehicle, 30 min [%] | cumulative food intake compared to vehicle, 60 min [%] | cumulative food intake compared to vehicle, 120 min [%] | cumulative food intake compared to vehicle, 180 min [%] |
| --- | --- | --- | --- | --- |
| KCNTATCVLGRLAAFLHRLQTYPRTNTGSNTY [Compound 96] | −49 | −38 | −19 | −23 |
| KCNTATCVLGRLADALHRLQTYPRTNTGSNTY [Compound 95] | −81 | −69 | −34 | −31 |
| KCNTATCVLGRLADFLHRFHTFPRTNTGSNTY [Compound 108] | −70 | −66 | −38 | – |
| KCNTATCVLGRLADFLHRFQTFPRTNTGSGTP [Compound 109] | −61 | −54 | −43 | – |
| KCNTATCVLGRLADFLHRFQTFPRTNTGSNTY [Compound 107] | −84 | −78 | −47 | – |
| KCNTATCVLGRLADFLHRLQTYPRTNTGSNTY [Compound 88] | −64 | −61 | −39 | −22 |
| KCNTATCVLGRLAEFLHRLQTYPRTNTGSNTY [Compound 104] | −69 | −67 | −54 | – |
| KCNTATCVLGRLANFLHRLQTYPRTNTGSNTY [Compound 14] | −52 | −36 | −28 | −33 |
| KCNTATCVLGRLAQFLHRLQTYPRTNTGSNTY [Compound 106] | −58 | −54 | −39 | – |
| KCNTATCVLGRLFDFLHRLQTYPRTNTGSNTY [Compound 112] | −62 | −65 | −50 | – |
| KCNTATCVLGRLNEYLHRLQTYPRTNTGSNTY [Compound 101] | −52 | −48 | −35 | – |
| KCNTATCVLGRLSQELHKLQTYPRTNTGSNTY [Compound 24] | −40 | −34 | −35 | −35 |
| KCNTATCVLGRLSQELHRLQNFVPRTNTGSNTY [Compound 90] | −55 | −41 | −24 | −15 |
| KCNTATCVLGRLSQELHRLQTLLQTYPRTNTGSNTY [Compound 48] | −54 | −51 | −36 | – |
| KCNTATCVLGRLSQELHRLQTLPPTNVGSNTY [Compound 13] | −40 | −33 | −25 | −24 |
| KCNTATCVLGRLSQELHRLQTLPRTNTGSNTY [Compound 11] | −52 | −47 | −38 | −35 |
| KCNTATCVLGRLSQELHRLQTMPRTNTGSNTY [Compound 99] | −57 | −55 | −50 | – |
| KCNTATCVLGRLSQELHRLQTVPRTNTGSNTY [Compound 100] | −60 | −52 | −41 | – |
| KCNTATCVLGRLSQELHRLQTYPPTNTGSNTY [Compound 12] | −43 | −39 | −37 | −32 |

| Substance | cumulative food intake compared to vehicle, 30 min [%] | cumulative food intake compared to vehicle, 60 min [%] | cumulative food intake compared to vehicle, 120 min [%] | cumulative food intake compared to vehicle, 180 min [%] |
| --- | --- | --- | --- | --- |
| KCNTATCVLGRLSQELHRLQTYPRTNTGSETF [Compound 91] | −59 | −47 | −26 | −24 |
| KCNTATCVLGRLSQELHRLQTYPRTNTGSGTP [Compound 25] | −29 | −34 | −45 | – |
| KCNTATCVLGRLSQELHRLQTYPRTNTGSKAF [Compound 93] | −43 | −30 | −27 | −29 |
| KCNTATCVLGRLSQELHRLQTYPTNVGSEAF [Compound 85] | 3 | −16 | −16 | – |
| KCNTATCVLGRLSQELHRYPRTNTGSNTY [Compound 39] | 7 | −14 | −23 | – |
| KCNTATCVLGRLSQELH[Orn]LQTYPRTNTGSNTY (cysteine pairing not given here) [Compound 77] | −46 | −43 | −44 | – |
| KCNTATCVLGRLSRSLHRLQTYPRTNTGSNTY [Compound 86] | −44 | −26 | −16 | – |
| KCNTATCVLGRLTDYLHRLQTYPRTNTGSNTY [Compound 105] | −83 | −82 | −52 | – |
| KCNTATCVLGRLTEFLHRLQTYPRTNTGSNTY [Compound 103] | −50 | −44 | −30 | – |
| KCNTATCVLG[Orn]LSQELH[Orn]LQTYPRTNTGSNTY (cysteine pairing not given here) [Compound 61] | −23 | −27 | −32 | – |
| KCNTATCVTHRLSQELHRLQTYPRTNTGSNTY [Compound 87] | −43 | −32 | −21 | – |
| KCNTAVCVLGRLSQELHRLQTYPRTNTGSNTY [Compound 37] | −3 | −2 | −16 | – |
| KCNTSTCATQRLANELVRLQTYPRTNVGSEAF [Compound 84] | −53 | −40 | −20 | – |
| KCNTSTCATQRLANELVRLQTYPRTNVGSNTY [Compound 53] | −92 | −89 | −36 | – |
| KCNTSTCVLGRLSQELHRLQTYPRTNTGSNTY [Compound 50] | −70 | −62 | −48 | – |
| KDNTATKVLGRLSQELHRLQTYPRTNTGSNTY [Compound 69] | −29 | −31 | −45 | – |
| SCNTATCVLGRLADFLHRLQTYPRTNTGSNTY [Compound 97] | −78 | −76 | −60 | −40 |
| TCDTATCVLGRLSQELHRLQTYPRTNTGSNTY [Compound 114] | −17 | −20 | −25 | – |
| isocaproyl-STAVLGRLSQELHRLQTYPRTNTGSNTY ({Pentanoyl(4-Me)}-STAVLGRLSQELHRLQTYPRTNTGSNTY-NH2; SMILES CC(C)CCC(=O)N[C@@H](CO)C(=O)N[C@H](C(=O)N[C@@H](C)C(=O)N[C@H](C(=O)N[C@@H](CC(C)C)C(=O)NCC(=O)N[C@@H](CCCNC(=N)N)C(=O)N[C@@H](CC(C)C)C(=O)N[C@@H](CO)C(=O)N[C@@H](CCC(N)=O)C(=O)N[C@@H](CCC(=O)O)C(=O)N[C@@H](CC(C)C)C(=O)N[C@@H](Cc1c[nH]cn1)C(=O)N[C@@H](CCCNC(=N)N)C(=O)N[C@@H](CC(C)C)C(=O)N[C@@H](CCC(N)=O)C(=O)N[C@H](C(=O)N[C@@H](Cc1ccc(O)cc1)C(=O)N1CCC[C@H]1C(=O)N[C@@H](CCCNC(=N)N)C(=O)N[C@H](C(=O)N[C@@H](CC(N)=O)C(=O)N[C@H](C(=O)NCC(=O)N[C@@H](CO)C(=O)N[C@@H](CC(N)=O)C(=O)N[C@H](C(=O)N[C@@H](Cc1ccc(O)cc1)C(N)=O)[C@@H](C)O)[C@@H](C)O)[C@@H](C)O)[C@@H](C)O)C(C)C)[C@@H](C)O) [Compound 20] | −9 | −21 | −30 | −31 |
